Test results: publication PMC2244645, “Peptide ligand screening of α-synuclein aggregation modulators by in silico panning” (BMC Bioinformatics, 2007)
Peptide text beside a SMILES is read from it.

What was measured:
α-synuclein [1] = biological target: T1, α-synuclein (Homo sapiens, UniProt P37840); test: surface plasmon resonance binding (CM5 sensor chip); settings: Scatchard plot; for affinity to α-synuclein (in words): peptide immobilized on CM5 chip by amine coupling, α-synuclein injected
T1 construct: made in house; host or cells: Escherichia coli BL21(DE3)
Experimental: The affinities of the screened peptides were determined by surface plasmon resonance measurement. The screened peptides were immobilized on a CM5 sensor chip by amine coupling. […] Thus, we added an alanine residue to the N-terminals of these peptides to immobilize them on the CM5 sensor chip and evaluated them. The dissociation constants were determined using a Scatchard plot. […] In the case of PTYF, its KD was more than 10 times that of QSTQ. Since docking simulation still has problems inaccuracy, we have to evaluate several peptides to find good ligands. In this study, we can obtain the high affinity peptide by assaying the top 4 peptides.
Human wild-type α-synuclein expressed in Escherichia coli BL21(DE3) cells transformed the pET28a/human α-synuclein WT plasmid. Following induction with 1 mM isopropyl-1-thio-β-D-galactopyranoside, the α-synuclein was purified by anion exchange chromatography. The bacterial cells were harvested by centrifugation at 5,000 g for 10 min and lysed in 500 mM NaCl, 20 mM Tris-HCl, pH 8.0, and 1 mM EDTA. The lysate was then boiled for 20 min, and centrifuged for 10 min at 20,000 g. The supernatant was dialyzed against 20 mM Tris-HCl, pH 8.0, loaded onto a ResourseQ 6-ml column (Amersham Biosciences) equilibrated in the same buffer, and eluted with a 0 ~1 M NaCl gradient. The α-synuclein-containing fraction was dialyzed against 10 mM Tris-HCl, pH 7.4.
All peptides were immobilized onto the CM5 sensor chip by amine coupling. The CM5 sensor chip (Biacore) was activated by an equimolar mix of NHS (N-hydroxysuccinimide) and EDC (N-ethyl-N'-(dimethylaminopropyl) carbodiimide), coupled with 100 μg/mL of the synthesized peptide in pH-6.0 sodium acetate buffer, and then blocked with ethanolamine. For reference, only activation and protection was carried out, in the same way as mentioned above. The final coupling level of each peptide was approximately 100 RU. Each of the α-synuclein solutions was injected, and at different concentrations a signal increase was observed. The sensor surface was regenerated using 0.5% SDS. The dissociation constants were determined using a Scatchard plot and an equilibrium point.

α-synuclein [2] = settings: cited from earlier work
[3] = tested on: α-synuclein 68–78 (GAVVTGVTAVA); settings: ref [14]; cited from earlier work
Description: To obtain an effective peptidic aggregation inhibitor, the peptide should bind to the region that plays an important role in amyloid fibril formation. The hydrophobic central region of α-synuclein called the "non-amyloid-β component of the amyloid plaque" (NAC) (residues 61–95) is the most important region in the formation of amyloid-like fibrils.

α-synuclein [4] = biological target: T1, α-synuclein; test: Thioflavin T (TfT) binding assay of α-synuclein fibril formation; format: biochemical; settings: α-synuclein 140 μM, peptide 700 μM (5-fold molar excess), 10 mM Tris-HCl pH 7.4, 0.02% NaN3, 37°C, shaking; 25 μM TfT
Experimental: (§1) To determine the effect of peptides on α-synuclein aggregation, we co-incubated α-synuclein with 5-fold molar excess of the screened peptides. The α-synuclein fibril amounts were evaluated by Thioflavin T (TfT) binding assay. It is known that when TfT binds to amyloid fibrils, the fluorescence intensity around 480 nm increases. […] Next, to determine whether or not these increases in fluorescence intensity depend on the fibril amount, we examined the aggregation amount by a light scattering assay at 330 nm. The value of optical density at 330 nm of the α-synuclein solution with the top peptides was also higher compared with that of the α-synuclein solution without peptide, as shown in Figure 4.
Figure 3 Time course of α-synuclein fibril formation. […] 100% is the final fluorescence intensity of α-synuclein without peptide. […]
(§2) All the protein samples were concentrated to approximately 4.0 mg/ml by means of Amicon Ultra-15 filters (Millipore) in 10 mM Tris-HCl, pH 7.4, and centrifuged at 150,000 g for 60 min to remove the insoluble aggregates. […] Fibril formation was monitored by thioflavin T (TfT) fluorescence: 10 μl aliquots were sampled from the incubated samples and added to 1.0 ml of 25 μM TfT in 10 mM Tris buffer, pH 7.4. Fluorescence emission was measured at 485 nm at an excitation wavelength of 450 nm on a FP6500 spectrofluorometer (JASCO). […]

α-synuclein [5] = biological target: T1, α-synuclein; test: light scattering assay at 330 nm (total aggregation); format: biochemical; settings: 5-fold molar excess of peptide, 10 mM Tris-HCl pH 7.4, 0.02% NaN3, 37°C, shaking
Experimental: as §1
Figure 4 Light scattering assay. […] 100% is the optical density at 330 nm of α-synuclein without peptide. […]
as §2

Compound: GSQQ [tetramer peptide from in silico panning, rank 2]
- affinity to α-synuclein (in words) (α-synuclein [1]): lower affinity than QSTQ and AQTQ

Compound: PTYF
- KD relative to KD of QSTQ (α-synuclein [1]; peptide immobilized on CM5 chip, alanine residue added to N-terminal): more than 10 times

Compound: SQTQ [tetramer peptide from in silico panning, rank 3]
- affinity to α-synuclein (in words) (α-synuclein [1]): lower affinity than QSTQ and AQTQ

Compound: N[C@@H](Cc1ccc(O)c(O)c1)C(=O)O [L-DOPA]
- cytotoxicity (in words) (α-synuclein [2]): enhance cytotoxicity

Compound: GAVVTGVTAVA [α-synuclein 68–78, partial peptide in NAC, the target 11-mer peptide]
- amyloid-like fibril formation by itself (in words) [3]: form amyloid-like fibrils by themselves

Compound: C[C@@H](O)[C@H](NC(=O)[C@H](CO)NC(=O)[C@@H](N)CCC(N)=O)C(=O)N[C@@H](CCC(N)=O)C(=O)O [QSTQ] (H-QSTQ-OH; N-terminus and C-terminus assumed)
- fluorescence intensity of TfT relative to solution without peptide (α-synuclein [4]): more than 1.5 times
- optical density at 330 nm relative to solution without peptide (α-synuclein [5]): more than 1.5 times

Compound: AQTQ [tetramer peptide from in silico panning, rank 4]
- affinity to α-synuclein (in words) (α-synuclein [1]): bound to α-synuclein with similar affinity of QSTQ
- optical density at 330 nm relative to solution without peptide (α-synuclein [5]): more than 1.5 times
